Reference: the supplement of paper PMC10307832

Experiments:
Assay in all cases: relative viability (nuclei count vs DMSO), 5 days (fraction); higher = more cells survive
R406 + Crizotinib = compound: COc1cc(Nc2ncc(F)c(Nc3ccc4c(n3)NC(=O)C(C)(C)O4)n2)cc(OC)c1OC [R406] + C[C@@H](Oc1cc(-c2cnn(C3CCNCC3)c2)cnc1N)c1c(Cl)ccc(F)c1Cl [Crizotinib] (partner 1 µM)
In short: (§1)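 Lung cancer cell lines in 1536-well plates were dosed by pin tool the day after seeding, either with one drug alone or with a fixed anchor-drug dose plus five library-drug doses (not always all listed) in √10 steps. After 5 days, cells were fixed and their nuclei stained in one step (final 0.05% Triton X-100, 1% formaldehyde, 1 ug/ml Hoechst), then counted on 4× images. Relative viability is the nuclei count in treated wells divided by that in vehicle wells. Values are medians of duplicate plates.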

Daporinad + Pictilisib = compound: O=C(/C=C/c1cccnc1)NCCCCC1CCN(C(=O)c2ccccc2)CC1 [Daporinad] + CS(=O)(=O)N1CCN(Cc2cc3nc(-c4cccc5[nH]ncc45)nc(N4CCOCC4)c3s2)CC1 [Pictilisib] (partner 1 µM)
In short: as §1

R406 + Linsitinib = compound: COc1cc(Nc2ncc(F)c(Nc3ccc4c(n3)NC(=O)C(C)(C)O4)n2)cc(OC)c1OC [R406] + C[C@]1(O)C[C@@H](c2nc(-c3ccc4ccc(-c5ccccc5)nc4c3)c3c(N)nccn32)C1 [Linsitinib] (partner 1 µM)
In short: as §1

R406 + Foretinib = compound: COc1cc(Nc2ncc(F)c(Nc3ccc4c(n3)NC(=O)C(C)(C)O4)n2)cc(OC)c1OC [R406] + COc1cc2c(Oc3ccc(NC(=O)C4(C(=O)Nc5ccc(F)cc5)CC4)cc3F)ccnc2cc1OCCCN1CCOCC1 [Foretinib] (partner 0.25 µM)
In short: as §1

## HCC-827
R406 + Crizotinib; first compound 0.08 µM
  relative viability: 0.975
R406 + Crizotinib; first compound 0.253 µM
  relative viability: 0.952
R406 + Crizotinib; first compound 0.8 µM
  relative viability: 0.899
R406 + Crizotinib; first compound 2.53 µM
  relative viability: 0.841
R406 + Crizotinib; first compound 8 µM
  relative viability: 0.409
Daporinad + Pictilisib; first compound 0.0005 µM
  relative viability: 1.12
Daporinad + Pictilisib; first compound 0.001581 µM
  relative viability: 0.994
Daporinad + Pictilisib; first compound 0.005 µM
  relative viability: 1.23
Daporinad + Pictilisib; first compound 0.01581 µM
  relative viability: 1.01
R406 + Linsitinib; first compound 0.08 µM
  relative viability: 0.975
R406 + Linsitinib; first compound 0.253 µM
  relative viability: 0.929
R406 + Linsitinib; first compound 0.8 µM
  relative viability: 0.937
R406 + Linsitinib; first compound 2.53 µM
  relative viability: 0.886
R406 + Linsitinib; first compound 8 µM
  relative viability: 0.477
R406 + Foretinib; first compound 0.08 µM
  relative viability: 0.991
R406 + Foretinib; first compound 0.253 µM
  relative viability: 1.08
R406 + Foretinib; first compound 0.8 µM
  relative viability: 1.05
R406 + Foretinib; first compound 2.53 µM
  relative viability: 0.81
R406 + Foretinib; first compound 8 µM
  relative viability: 0.157

## SW 1573
R406 + Crizotinib; first compound 0.08 µM
  relative viability: 0.747
R406 + Crizotinib; first compound 0.253 µM
  relative viability: 1
R406 + Crizotinib; first compound 0.8 µM
  relative viability: 0.769
R406 + Crizotinib; first compound 2.53 µM
  relative viability: 0.653
R406 + Crizotinib; first compound 8 µM
  relative viability: 0.579
Daporinad + Pictilisib; first compound 0.0005 µM
  relative viability: 0.524
Daporinad + Pictilisib; first compound 0.001581 µM
  relative viability: 0.552
Daporinad + Pictilisib; first compound 0.005 µM
  relative viability: 0.524
Daporinad + Pictilisib; first compound 0.01581 µM
  relative viability: 0.36
R406 + Linsitinib; first compound 0.08 µM
  relative viability: 0.926
R406 + Linsitinib; first compound 0.253 µM
  relative viability: 0.864
R406 + Linsitinib; first compound 0.8 µM
  relative viability: 0.812
R406 + Linsitinib; first compound 2.53 µM
  relative viability: 0.664
R406 + Linsitinib; first compound 8 µM
  relative viability: 0.627
R406 + Foretinib; first compound 0.08 µM
  relative viability: 0.908
R406 + Foretinib; first compound 0.253 µM
  relative viability: 0.915
R406 + Foretinib; first compound 0.8 µM
  relative viability: 0.887
R406 + Foretinib; first compound 2.53 µM
  relative viability: 0.932
R406 + Foretinib; first compound 8 µM
  relative viability: 0.665

## NCI-H1975
R406 + Crizotinib; first compound 0.08 µM
  relative viability: 0.949
R406 + Crizotinib; first compound 0.253 µM
  relative viability: 1.13
R406 + Crizotinib; first compound 0.8 µM
  relative viability: 0.977
R406 + Crizotinib; first compound 2.53 µM
  relative viability: 0.46
R406 + Crizotinib; first compound 8 µM
  relative viability: 0.221
Daporinad + Pictilisib; first compound 0.0005 µM
  relative viability: 0.267
Daporinad + Pictilisib; first compound 0.001581 µM
  relative viability: 0.333
Daporinad + Pictilisib; first compound 0.005 µM
  relative viability: 0.315
Daporinad + Pictilisib; first compound 0.01581 µM
  relative viability: 0.304
R406 + Linsitinib; first compound 0.08 µM
  relative viability: 0.875
R406 + Linsitinib; first compound 0.253 µM
  relative viability: 1.06
R406 + Linsitinib; first compound 0.8 µM
  relative viability: 0.981
R406 + Linsitinib; first compound 2.53 µM
  relative viability: 0.467
R406 + Linsitinib; first compound 8 µM
  relative viability: 0.186
R406 + Foretinib; first compound 0.08 µM
  relative viability: 0.9
R406 + Foretinib; first compound 0.253 µM
  relative viability: 1.05
R406 + Foretinib; first compound 0.8 µM
  relative viability: 0.986
R406 + Foretinib; first compound 2.53 µM
  relative viability: 0.492
R406 + Foretinib; first compound 8 µM
  relative viability: 0.227

## NCI-H1703
R406 + Crizotinib; first compound 0.08 µM
  relative viability: 0.623
R406 + Crizotinib; first compound 0.8 µM
  relative viability: 0.662
R406 + Crizotinib; first compound 2.53 µM
  relative viability: 0.199
R406 + Crizotinib; first compound 8 µM
  relative viability: 0.129
Daporinad + Pictilisib; first compound 0.0005 µM
  relative viability: 0.236
Daporinad + Pictilisib; first compound 0.001581 µM
  relative viability: 0.283
Daporinad + Pictilisib; first compound 0.005 µM
  relative viability: 0.259
Daporinad + Pictilisib; first compound 0.01581 µM
  relative viability: 0.265
R406 + Linsitinib; first compound 0.08 µM
  relative viability: 0.742
R406 + Linsitinib; first compound 0.253 µM
  relative viability: 0.859
R406 + Linsitinib; first compound 0.8 µM
  relative viability: 0.695
R406 + Linsitinib; first compound 2.53 µM
  relative viability: 0.186
R406 + Linsitinib; first compound 8 µM
  relative viability: 0.139
R406 + Foretinib; first compound 0.08 µM
  relative viability: 0.346
R406 + Foretinib; first compound 0.253 µM
  relative viability: 0.327
R406 + Foretinib; first compound 0.8 µM
  relative viability: 0.323
R406 + Foretinib; first compound 2.53 µM
  relative viability: 0.228
R406 + Foretinib; first compound 8 µM
  relative viability: 0.218

## NCI-H1651
R406 + Crizotinib; first compound 0.08 µM
  relative viability: 0.869
R406 + Crizotinib; first compound 0.253 µM
  relative viability: 0.914
R406 + Crizotinib; first compound 0.8 µM
  relative viability: 0.853
R406 + Crizotinib; first compound 2.53 µM
  relative viability: 0.815
R406 + Crizotinib; first compound 8 µM
  relative viability: 0.929
Daporinad + Pictilisib; first compound 0.0005 µM
  relative viability: 0.642
Daporinad + Pictilisib; first compound 0.001581 µM
  relative viability: 0.683
Daporinad + Pictilisib; first compound 0.005 µM
  relative viability: 0.629
Daporinad + Pictilisib; first compound 0.01581 µM
  relative viability: 0.601
R406 + Linsitinib; first compound 0.08 µM
  relative viability: 0.862
R406 + Linsitinib; first compound 0.253 µM
  relative viability: 1.1
R406 + Linsitinib; first compound 0.8 µM
  relative viability: 1.06
R406 + Linsitinib; first compound 2.53 µM
  relative viability: 0.829
R406 + Linsitinib; first compound 8 µM
  relative viability: 0.5
R406 + Foretinib; first compound 0.08 µM
  relative viability: 0.875
R406 + Foretinib; first compound 0.253 µM
  relative viability: 0.83
R406 + Foretinib; first compound 0.8 µM
  relative viability: 0.939
R406 + Foretinib; first compound 2.53 µM
  relative viability: 0.596
R406 + Foretinib; first compound 8 µM
  relative viability: 0.679

## NCI-H460
R406 + Crizotinib; first compound 0.08 µM
  relative viability: 0.829
R406 + Crizotinib; first compound 0.253 µM
  relative viability: 1.09
R406 + Crizotinib; first compound 0.8 µM
  relative viability: 1.16
R406 + Crizotinib; first compound 8 µM
  relative viability: 0.441
Daporinad + Pictilisib; first compound 0.0005 µM
  relative viability: 0.332
Daporinad + Pictilisib; first compound 0.001581 µM
  relative viability: 0.368
Daporinad + Pictilisib; first compound 0.005 µM
  relative viability: 0.423
Daporinad + Pictilisib; first compound 0.01581 µM
  relative viability: 0.535
R406 + Linsitinib; first compound 0.08 µM
  relative viability: 0.824
R406 + Linsitinib; first compound 0.253 µM
  relative viability: 0.8
R406 + Linsitinib; first compound 0.8 µM
  relative viability: 1.17
R406 + Linsitinib; first compound 8 µM
  relative viability: 0.0646
R406 + Foretinib; first compound 0.08 µM
  relative viability: 0.887
R406 + Foretinib; first compound 0.253 µM
  relative viability: 1.13
R406 + Foretinib; first compound 0.8 µM
  relative viability: 1.16
R406 + Foretinib; first compound 2.53 µM
  relative viability: 1.07
R406 + Foretinib; first compound 8 µM
  relative viability: 0.781
